Measurements published in the supplement of paper PMC13380429.

Assays:
Caco-2 [1] = assay: cell viability relative to DMSO; higher = less toxic; conditions: 72 h
U2OS [2] = assay: as above; conditions: 72 h
Vero E6 [3] = assay: as above; conditions: 72 h
Calu-3 [4] = assay: as above; conditions: 72 h
HepG2 [5] = assay: as above; conditions: 72 h
A549-ACE2 [6] = assay: drug-induced phospholipidosis relative to tamoxifen; higher = more phospholipidosis
[7] = system: A549-ACE2 infected with SARS-CoV-2; assay: morphology score (similarity to uninfected cells); higher = more like uninfected cells; conditions: 24 h
Caco-2 [8] = assay: drug sensitivity score (DSS) for viability; higher = more toxic; extreme values may be limits of the assay; conditions: 72 h
U2OS [9] = assay: as above; conditions: 72 h
Vero E6 [10] = assay: as above; conditions: 72 h
Calu-3 [11] = assay: as above; conditions: 72 h
HepG2 [12] = assay: as above; conditions: 72 h
[13] = system: A549-ACE2 infected with SARS-CoV-2; assay: SARS-CoV-2 infection rate relative to DMSO; higher = more infection; conditions: 24 h
Caco-2 [14] = assay: relative viability EC50 (midpoint between 100% and the lowest measured viability); higher = less toxic; conditions: 72 h
U2OS [15] = assay: as above; conditions: 72 h
Vero E6 [16] = assay: as above; conditions: 72 h
Calu-3 [17] = assay: as above; conditions: 72 h
HepG2 [18] = assay: as above; conditions: 72 h
[19] = system: A549-ACE2 infected with SARS-CoV-2; assay: cell count relative to DMSO; higher = less toxic; conditions: 24 h
A549-ACE2 [20] = assay: phospholipidosis EC50; higher = less potent phospholipidosis inducer

C=CC(=O)N1CCN(C(=O)CNc2cc(I)c(Cl)cc2O)CC1 [K-Ras(G12C)-inhibitor-12]
Conditions	SARS-CoV-2 infection rate, [13] [%]	cell count, [19] [%]	cell viability, Caco-2 [1] [%]	cell viability, Calu-3 [4] [%]	cell viability, HepG2 [5] [%]	cell viability, U2OS [2] [%]	cell viability, Vero E6 [3] [%]	morphology score, [7]
1 nM	–	–	102	112	95.2	108	101	–
10 nM	–	–	96.3	103	98.1	96.9	107	–
100 nM	–	–	106	104	88.2	104	90.2	–
0.3 µM	74	109	–	–	–	–	–	0.34
1000 nM	–	–	88.3	75.5	72.8	96.6	54.1	–
3 µM	86	93	–	–	–	–	–	0.05
10000 nM	–	–	76.6	79.5	42.8	93.5	40.1	–
10 µM	76	93	–	–	–	–	–	0.03
30 µM	77	85	–	–	–	–	–	-0.03

drug-induced phospholipidosis [%], A549-ACE2 [6]
Conditions	0.3 µM	0.833333 µM	3.33333 µM	6.66667 µM	10 µM	30 µM
24 h	8.49	7.52	10	12	13.7	24
48 h	5.08	2.66	7.02	10.2	11.5	19.6
72 h	5.88	1.74	5.37	8.06	13.5	16

Conditions	drug sensitivity score	relative viability EC50 [µM]
Caco-2 [8]	2.2	–
Caco-2 [14]	–	> 10
Calu-3 [11]	3.5	–
Calu-3 [17]	–	> 10
HepG2 [12]	6.5	–
HepG2 [18]	–	0.805
U2OS [9]	0	–
U2OS [15]	–	> 10
Vero E6 [10]	9.6	–
Vero E6 [16]	–	0.388

C1CCC(C(CC2CCCCN2)C2CCCCC2)CC1 (stereo not drawn) [perhexiline]
Conditions	SARS-CoV-2 infection rate [%]	cell count [%]	cell viability [%]	morphology score	phospholipidosis EC50 [µM]
A549-ACE2 [20], 24 h	–	–	–	–	0.945
A549-ACE2 [20], 48 h	–	–	–	–	2.48
A549-ACE2 [20], 72 h	–	–	–	–	4.51
Caco-2 [1], 1 nM	–	–	92.7	–	–
Caco-2 [1], 10 nM	–	–	101	–	–
Caco-2 [1], 100 nM	–	–	93.9	–	–
Caco-2 [1], 1000 nM	–	–	90.9	–	–
Caco-2 [1], 10000 nM	–	–	63.5	–	–
Calu-3 [4], 1 nM	–	–	108	–	–
Calu-3 [4], 10 nM	–	–	101	–	–
Calu-3 [4], 100 nM	–	–	92.6	–	–
Calu-3 [4], 1000 nM	–	–	101	–	–
Calu-3 [4], 10000 nM	–	–	1.9	–	–
HepG2 [5], 1 nM	–	–	98.9	–	–
HepG2 [5], 10 nM	–	–	99.5	–	–
HepG2 [5], 100 nM	–	–	103	–	–
HepG2 [5], 1000 nM	–	–	95.1	–	–
HepG2 [5], 10000 nM	–	–	38.6	–	–
U2OS [2], 1 nM	–	–	101	–	–
U2OS [2], 10 nM	–	–	103	–	–
U2OS [2], 100 nM	–	–	103	–	–
U2OS [2], 1000 nM	–	–	98.6	–	–
U2OS [2], 10000 nM	–	–	62	–	–
Vero E6 [3], 1 nM	–	–	106	–	–
Vero E6 [3], 10 nM	–	–	103	–	–
Vero E6 [3], 100 nM	–	–	99.5	–	–
Vero E6 [3], 1000 nM	–	–	95.3	–	–
Vero E6 [3], 10000 nM	–	–	71.1	–	–
[7], 0.1 µM	–	–	–	-0.02	–
[7], 0.3 µM	–	–	–	-0.25	–
[7], 1 µM	–	–	–	0.35	–
[7], 3 µM	–	–	–	0.91	–
[13], 0.1 µM	100	–	–	–	–
[13], 0.3 µM	104	–	–	–	–
[13], 1 µM	79	–	–	–	–
[13], 3 µM	36	–	–	–	–
[19], 0.1 µM	–	99	–	–	–
[19], 0.3 µM	–	96	–	–	–
[19], 1 µM	–	105	–	–	–
[19], 3 µM	–	123	–	–	–

drug-induced phospholipidosis [%], A549-ACE2 [6]
Conditions	0.3 µM	0.833333 µM	3.33333 µM	6.66667 µM	10 µM	30 µM
24 h	3.79	25.8	87.2	113	106	26.8
48 h	4.34	16.1	84.3	113	121	–
72 h	5.16	14.3	68.3	99.9	120	–

Conditions	drug sensitivity score	relative viability EC50 [µM]
Caco-2 [8]	2.9	–
Calu-3 [11]	5.4	–
Calu-3 [17]	–	3.24
HepG2 [12]	4.1	–
HepG2 [18]	–	2.51
U2OS [9]	2	–
Vero E6 [10]	2	–

CN1CCN(CCCN2c3ccccc3Sc3ccc(Cl)cc32)CC1 [prochlorperazine]
Conditions	SARS-CoV-2 infection rate [%]	cell count [%]	cell viability [%]	morphology score	phospholipidosis EC50 [µM]
A549-ACE2 [20], 24 h	–	–	–	–	3.19
A549-ACE2 [20], 48 h	–	–	–	–	4.05
A549-ACE2 [20], 72 h	–	–	–	–	12.5
Caco-2 [1], 1 nM	–	–	100	–	–
Caco-2 [1], 10 nM	–	–	84.1	–	–
Caco-2 [1], 100 nM	–	–	96.9	–	–
Caco-2 [1], 1000 nM	–	–	99.8	–	–
Caco-2 [1], 10000 nM	–	–	76.6	–	–
Calu-3 [4], 1 nM	–	–	106	–	–
Calu-3 [4], 10 nM	–	–	103	–	–
Calu-3 [4], 100 nM	–	–	105	–	–
Calu-3 [4], 1000 nM	–	–	105	–	–
Calu-3 [4], 10000 nM	–	–	93.2	–	–
HepG2 [5], 1 nM	–	–	107	–	–
HepG2 [5], 10 nM	–	–	102	–	–
HepG2 [5], 100 nM	–	–	97	–	–
HepG2 [5], 1000 nM	–	–	106	–	–
HepG2 [5], 10000 nM	–	–	55.5	–	–
U2OS [2], 1 nM	–	–	103	–	–
U2OS [2], 10 nM	–	–	94.5	–	–
U2OS [2], 100 nM	–	–	98.6	–	–
U2OS [2], 1000 nM	–	–	94	–	–
U2OS [2], 10000 nM	–	–	91.4	–	–
Vero E6 [3], 1 nM	–	–	96	–	–
Vero E6 [3], 10 nM	–	–	92.5	–	–
Vero E6 [3], 100 nM	–	–	101	–	–
Vero E6 [3], 1000 nM	–	–	97.4	–	–
Vero E6 [3], 10000 nM	–	–	81	–	–
[7], 0.3 µM	–	–	–	0	–
[7], 3 µM	–	–	–	0.84	–
[7], 10 µM	–	–	–	0.79	–
[7], 30 µM	–	–	–	0.19	–
[13], 0.3 µM	95	–	–	–	–
[13], 3 µM	29	–	–	–	–
[13], 10 µM	12	–	–	–	–
[13], 30 µM	50	–	–	–	–
[19], 0.3 µM	–	100	–	–	–
[19], 3 µM	–	123	–	–	–
[19], 10 µM	–	117	–	–	–
[19], 30 µM	–	64	–	–	–

drug-induced phospholipidosis [%], A549-ACE2 [6]
Conditions	0.3 µM	0.833333 µM	3.33333 µM	6.66667 µM	10 µM	30 µM
24 h	1.08	10.5	48.6	76.3	92.2	56.6
48 h	0.82	7.81	45.8	83.3	94.4	–
72 h	3.57	9.54	35	75	104	–

Conditions	drug sensitivity score	relative viability EC50 [µM]
Caco-2 [8]	0.9	–
Caco-2 [14]	–	> 10
Calu-3 [11]	0	–
Calu-3 [17]	–	> 10
HepG2 [12]	1.9	–
U2OS [9]	0	–
U2OS [15]	–	> 10
Vero E6 [10]	0.9	–
Vero E6 [16]	–	> 10
